# Assay results from patent US20150335662A1, “METHODS FOR DIAGNOSING AND TREATING SEPSIS” (priority 2013, published 2015).
# Test system: Cecum Ligation-Puncture (CLP) induced sepsis
# Assay: Cecum Ligation-Puncture (CLP) induced sepsis in rats, daily calcitriol dosing, survival and body weight
# Type: in vivo, adult Wistar rats
# Conditions: CLP septic rats
# Method: Then, the optimal dosing of calcitriol as an example of an agent for treatment of sepsis according to the present invention was determined. Anesthesia was induced in adult Wistar rats with 5% isoflurane followed by maintenance on 2.5% isoflurane. The cecum was exteriorized via a small abdominal incision, and was then ligated approximately 3.5 […] distal to the cecum tip. The ligated cecum was punctured twice with a 26-gauge needle and was gently squeezed to extrude some stool. The cecum was replaced in the abdomen and the incision closed with 4-0 silk sutures in two layers, abdominal wall and skin. This Cecum Ligation-Puncture (CLP) procedure induced sepsis in the animals. Sham-operated rats were treated identically, except that the cecum was neither ligated nor punctured.
# The rats then received either standard therapy (normal saline (30 ml/kg body weight) given once immediately after the CLP procedure to compensate the third-space fluid loss and imipenem (25 mg/kg body weight) daily subcutaneously) or therapy according to the present invention (calcitriol at 25 ng, 100 ng or 400 ng in peanut oil subcutaneously daily). The rats were monitored daily for body weight and survival.
# Referring now to FIG. 9 and FIG. 10, there are shown, respectively, a graph of percent survival as a function of time after induction of sepsis in rats showing the effect of various doses of calcitriol (none, triangles; 25 ng daily, line; 100 ng daily, circles; and 400 ng daily, squares) (FIG. 9); and a graph of body weight in grams as a function of time after induction of sepsis in rats showing the effect of various doses of calcitriol (none, triangles; 25 ng daily, line; 100 ng daily, circles; and 400 ng daily, squares) (FIG. 10).
smiles,measurement,setting,value
"C=C1C(=CC=C2CCC[C@]3(C)[C@@H]2CC[C@@H]3[C@H](C)CCCC(C)(C)O)C[C@@H](O)C[C@@H]1O [calcitriol, (1R,3S)-5-[2-[(1R,3aR,7aS)-1-[(2R)-6-hydroxy-6-methyl-heptan-2-yl]-7a-methyl-2,3,3a,5,6,7-hexahydro-1H-inden-4-ylidene]ethylidene]-4-methylidene-cyclohexane-1,3-diol]",signs of hypercalcemia,400 ng daily subcutaneously,typical signs of hypercalcemia
same,effect on survival,"400 ng daily subcutaneously, FIG. 9",negatively affected
same,effect on body weight,"400 ng daily subcutaneously, FIG. 10",negatively affected
same,optimal dose for survival,"calcitriol 25, 100 or 400 ng in peanut oil subcutaneously daily, FIG. 9",100 ng daily
same,optimal dose for body weight,"calcitriol 25, 100 or 400 ng in peanut oil subcutaneously daily, FIG. 10",100 ng daily
